Columns and labels:
hAdoMetDC [1] = biological target: T1, hAdoMetDC (Homo sapiens, UniProt P17707); type: biochemical; conditions: versus corresponding 8-H parent compound
T1 sequence (P17707 1-67 limits assumed): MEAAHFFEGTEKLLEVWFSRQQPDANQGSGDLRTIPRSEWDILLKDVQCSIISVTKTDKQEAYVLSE
T1 sequence (P17707 68-328 limits assumed): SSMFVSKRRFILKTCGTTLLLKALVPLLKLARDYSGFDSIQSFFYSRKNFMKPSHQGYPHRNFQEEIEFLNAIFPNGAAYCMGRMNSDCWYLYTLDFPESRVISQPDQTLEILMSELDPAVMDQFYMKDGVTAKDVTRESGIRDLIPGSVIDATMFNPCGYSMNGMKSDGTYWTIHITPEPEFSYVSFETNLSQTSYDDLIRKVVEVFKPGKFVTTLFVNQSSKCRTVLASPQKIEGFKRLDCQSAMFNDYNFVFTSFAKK

hAdoMetDC [2] = biological target: T1, hAdoMetDC; conditions: previously reported AdoMetDC inhibitor; cited from earlier work

Structure (SMILES)	reduction in the IC50 value / increase in potency when an 8-methyl substituent was added to the adenine ring (hAdoMetDC [1]) [fold]	Ki (hAdoMetDC [2])
Cc1nc2c(N)ncnc2n1[C@@H]1O[C@H](CN(C)CCCCON)[C@@H](O)[C@H]1O.O=S(=O)(O)O [Compound 14d, 5′-[(4-Aminooxybutyl)methylamino]-5′-deoxy-8-methyladenosine sulfate (1.9:1 salt)]	3.4	
C[S+](C)C[C@H]1O[C@@H](n2cnc3c(N)ncnc32)[C@H](O)[C@@H]1O.[Cl-] [Compound 25d, 5′-Deoxy-5′-dimethylsulfonioadenosine chloride]		μM range

Reference: PMC2652407 (Journal of Medicinal Chemistry, 2009)
